Reference: patent publication US10722580B2, “Compositions and methods for treatment and prevention of uropathogenic E. coli infection” (UNIVERSITY OF WASHINGTON, priority 2015, dated 2020)

Assays:
E. coli UTI89 [1] = assay: Biofilm formation on mannan-coated surface; type: cell-based; details: 1% mannose or 50 μg/ml mAb added prior to growth (FIG. 7A)
Method: (§1) Microtiter 96-well plates were coated with 20 μg/mL of yeast mannan or RNaseB (Sigma-Aldrich) in 0.02 M NaHCO3 buffer at pH 9.6. Bacterial strains grown overnight in 3 ml LB media were spun and washed 1× with minimal essential media (MEM, Difco). […] After washing with PBS, formed biofilms were stained with 0.1% (v/v) crystal violet (Becton Dickinson) as described above for bacterial adhesion assay. […] The wells were washed 3 times with PBS and stain for biofilm detection as described above.

Klebsiella pneumoniae [2] = assay: Detachment of 14 h-old Klebsiella biofilm; type: cell-based; details: 14-h-old biofilm, 1% mannose or 50 μg/ml mAb (FIG. 11B)
Method: (§2) FIG. 11. […] Data (mean±SD, n=3 independent experiments). […] Data (mean±SD, n=3 independent experiments). Biofilm was quantified using the crystal violet staining method. *, P≤0.05, **, P≤0.0005 (one sample t-test).
as §1

Klebsiella fimbrial FimH = assay: Binding of anti-E. coli FimH antibodies to Klebsiella fimbrial FimH; design: species or system Klebsiella pneumoniae; details: FimH^wt and FimH^S62A, 50 and 5 μg/ml mAb (FIG. 9)
Method: FIG. 9. Recognition of Klebsiella FimH by anti-E. coli FimH antibodies. […] Type 1 fimbriae carrying different FimH variants (FimH^wt and FimH^S62A mutant) were incubated with different concentrations of mAbs (50 and 5 μg/ml). Data shown are mean±SD of duplicates from one representative experiment.

E. coli UTI89 [3] = assay: Mouse bladder infection, transurethral inoculation of mAb-pretreated bacteria; type: in vivo; details: C57BL/6 mice, 24 h post infection, bacteria pretreated with 500 μg/ml mAb 1 h
Method: Infection of 10- to 11-week-old C57BL/6 female mice was performed as described elsewhere (Kisiela, et al. 2013). Briefly, bacteria were grown in LB medium without shaking for 48 h, harvested, washed twice in PBS and resuspended in PBS at a final concentration of 10^8 CFU per ml. Bacteria were pretreated with 500 μg/ml mAbs for 1 h at 37° C. prior to inoculation. Mice were anesthetized with ketamine/xylazine and twenty-five microliters of mAb-pretreated bacteria in PBS were inoculated transurethrally into mouse bladders via catheter. After 24 h, mice were sacrificed and bladders were aseptically removed and homogenized in 1 mL PBS. Serial dilutions were plated and total bacterial load per bladder was calculated. Statistical significance was determined using two-tailed Mann-Whitney test (GraphPad Prism 6.0 software, La Jolla, Ca).

E. coli CFT073 [4] = assay: Passive and active immunization, non-diabetic mice, bacterial load in urine; type: in vivo
Method: (§3) The intraperitoneal injection was completed 1 day prior and 1 day after challenge with CFT073 E. coli (A07 Study for Vaccine candidate, Contract #HHSN2722010000401, Task Order #HHSN27200005, Galveston). […] Mixtures of antibodies for passive transfer were prepared as 150 μg per mouse doses in 50 μl volumes of sterile HBS. The effect of the antibodies was evaluated in two mice models that included non-diabetic and diabetic C57BI/6 mice, respectively. Mice injected with incomplete Freund's adjuvant only (IFA) were used as the control (mock) group in each model. Bacterial load in mice urine was analyzed daily over 14-days' time period starting 24 h after bacterial challenge.
Diabetic state in C57BI/6 mice was induced by the 4 days-treatment with streptozotocin (STZ) by intraperitoneal injection. Groups of 100 C57BI/6 mice were randomly divided into 5 groups of ten for diabetic and for non-diabetic states respectively. […] Mice were challenged with CFT073 UPEC strain (1×10^6 cfu/50 μl per mouse) via intraurethral catheterization under isoflurane anesthesia. Bacterial load in mice urine was analyzed daily over 14-days' time starting 24 h after bacterial challenge. Genomic bacterial load was quantified in each urine sample (10 μl) by qPCR. Statistical analysis of the data was performed using the Generalized Estimating Equation model (GEE) (xtgee command in STATA software, StataCorp. 2015. Stata Statistical Software: Release 14. College Station, Tex.: StataCorp LP). Overall, 1400 observations were made for 100 mice over 14 days. Out of 1,400 total 237 observations were missing (no urine provided) and were excluded from subsequent analysis. The mice ID were set as a panel variable, treatment type and days as predictor variables with interaction allowed between them; and E. coli counts as an outcome variable. […] For log10 transformation, zero counts (E. coli not detected) were replaced with value 1. […] After exclusion of outliers, 617 (out of initial 673, 91.6%) observations were analyzed using same model.

E. coli UTI89 [5] = assay: Detachment of 16 h-old biofilm on mannan-coated surface; type: cell-based; details: for effect on detachment of pre-formed biofilm: 1% mannose or 50 μg/ml mAb (FIG. 7B)
Method: as §1

E. coli CFT073 [6] = assay: Passive and active immunization, diabetic mice, bacterial load in urine; type: in vivo; details: diabetic (STZ) mice; mAb 150 μg i.p. or LD antigen 15 μg s.c.
Method: as §3
Diabetic state in C57BI/6 mice was induced by the 4 days-treatment with streptozotocin (STZ) by intraperitoneal injection. Groups of 100 C57BI/6 mice were randomly divided into 5 groups of ten for diabetic and for non-diabetic states respectively. […] Bacterial load in mice urine was analyzed daily over 14-days' time starting 24 h after bacterial challenge. Genomic bacterial load was quantified in each urine sample (10 μl) by qPCR. […] For log10 transformation, zero counts (E. coli not detected) were replaced with value 1. […] After exclusion of outliers, 617 (out of initial 673, 91.6%) observations were analyzed using same model.

FimH^wt:(186-201)FocH = assay: Cross-interference of inhibitory mAbs binding to FimH; design: species or system E. coli; details: FimH pre-incubated with antibody, biotinylated mAb binding (FIG. 16)
Method: FIG. 16. Inhibitory mAbs interfere with each other's binding to FimH. […] The data shown are mean±SD of triplicates from one representative experiment of multiple experiments that were performed with similar settings.

[7] = test system: FimH^wt-expressing E. coli; assay: Inhibition of bacterial adhesion to surface-immobilized yeast mannan; type: cell-based
Method: (§4) Microtiter 96-well plates were coated with 20 μg/ml of yeast mannan or RNaseB (Sigma-Aldrich) in 0.02 M NaHCO3 buffer at pH 9.6. The wells were quenched with 0.2% bovine serum albumin (BSA, Sigma-Aldrich) in PBS for 20 min. Bacteria expressing FimH adhesin (OD=1 or OD=2) were first preincubated with different concentrations of mAbs for 1 h at 37° C. and then allowed to adhere to ligand-coated surface for another 1 h. After an extensive washing with PBS, plates were dried and bound bacteria were stained with 0.1% crystal violet (Becton Dickinson) for 20 min at room temperature (RT). The wells were washed with water and 50% ethanol was added to the wells. The absorbance was measured at 600 nm.

Klebsiella pneumoniae [8] = assay: Inhibition of Klebsiella adhesion to surface-immobilized RNaseB; type: cell-based; details: 50 μg/ml mAb (FIG. 10)
Method: FIG. 10. […] Data are mean±SD (n=2 independent experiments).
as §4

Klebsiella pneumoniae [9] = assay: Klebsiella biofilm formation on RNaseB-coated surfaces; type: cell-based; details: two Klebsiella FimH variants, 1% mannose or 50 μg/ml mAb (FIG. 11A)
Method: as §2, §1

Sequence of FimH^wt:(186-201)FocH (P08191 22-179 limits assumed): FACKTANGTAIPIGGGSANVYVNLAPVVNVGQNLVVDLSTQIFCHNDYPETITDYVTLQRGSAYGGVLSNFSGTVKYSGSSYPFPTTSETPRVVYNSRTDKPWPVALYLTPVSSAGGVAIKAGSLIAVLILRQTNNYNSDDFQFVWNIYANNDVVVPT

Row | Substance | effect on biofilm formation (E. coli UTI89 [1]) | destabilization of pre-formed biofilm (Klebsiella pneumoniae [2]) | binding to Klebsiella FimH compared with E. coli FimH (Klebsiella fimbrial FimH) | reduction in bacteria recovered from bladder (E. coli UTI89 [3]) | estimated average log10 of bacterial counts in urine (E. coli CFT073 [4]; non-diabetic C57BI/6 mice, day 1 after challenge, 150 μg mAb i.p. 1 day prior and 1 day after challenge) | estimated log10 bacterial counts in urine (E. coli CFT073 [4]; non-diabetic C57BI/6 mice, day 3 after challenge, 150 μg mAb i.p.) | effect on bacterial counts in urine vs mock group (E. coli CFT073 [4]; non-diabetic mice, mAb 150 μg i.p. or LD antigen 15 μg s.c.) | biofilm reduction (E. coli UTI89 [5]; 50 μg/ml mAb (FIG. 7B)) | effect on detachment of pre-formed biofilm (E. coli UTI89 [5]) | effect on bacterial counts in urine vs mock group (E. coli CFT073 [6]) | interference with the other inhibitory mAb's binding to FimH (FimH^wt:(186-201)FocH) | difference in inhibitory potency (IC50) mAb926 vs mAb475 [7] | inhibition of bacterial adhesion at its KD concentration ([7]; antibody at its KD concentration) | effect on Klebsiella adhesion to RNaseB (Klebsiella pneumoniae [8]) | inhibition of biofilm formation (Klebsiella pneumoniae [9])
1 | mAb926: mouse monoclonal anti-FimH antibody, VL SEQ ID NO: 3, VH SEQ ID NO: 4; non-competitive parasteric inhibitor | prevented formation | significant (P=0.0005) destabilization of the biofilm | same level of binding to both FimH adhesins | 83% | 1.31±0.5 log10 | 0.99±0.4 log10 | significant decrease of bacterial counts in urine | 93% | effective dissolution of the biofilm | reduced bacterial load | strongly cross-interfere with each other's binding to FimH | 32 fold | > 50% | significantly reduced bacterial adhesion | 76-86%
2 | α-methyl-D-mannopyranoside [mannose, reference compound] | prevented formation |  |  |  |  |  |  |  | neither mAb475 nor soluble mannose caused substantial detachment |  |  |  |  |  | 38-67%
